Source: patent US20040006070A1, “Intraspinal continuous infusion of midazolam hydrochloride for the treatment of pain” (priority 2002, published 2004)
Values joined by “and” are separate entries in the source; they are usually repeats but may differ in a detail not shown here. Identical values can stand only once. “Also recorded” adds a separate entry of the source. Counter-ions that a name gives are not always drawn. Like-named read-outs stand apart in the source and are kept apart here.

How the values were obtained:
[1] = Physiological data: indirect blood pressure, pulse, rectal temperature, weight; type: in vivo, sheep
Description: Daily rectal temperatures were taken and any behavioral/motor changes were noted. Gait monitoring will be conducted as described below based on a four-grade scale for the evaluation of behavioral and motor changes. Grade 0: animal standing, sheep is able to rise and ambulate without any difficulty. Grade 1: Shuffling of either rear leg or slight limp; slight distortion of normal spinal axis. Grade 2: Loss of righting reflex in one of the rear legs, sheep able to stand without assistance, but with some difficulty. Grade 3: Inability to maintain standing posture; attempts to help animal stand are unsuccessful.
Indirect blood pressure, pulse recording, pain testing (mechanical stimulus device, cold and warm water baths see description in procedure) and weight were taken on days 1, 3, 7, 15, 22, 29, 36, and 43. Venous blood samples (15 ml drawn from the jugular vein with Vacutainer brand blood collection tubes) for complete blood count, electrolytes, and extended blood chemistry were drawn on days 1, 15, and 43 (mild procedure only light hand restraint necessary).

[2] = system: neuropathic pain model in the sheep; experiment: Neuropathic pain model in sheep, mechanical stimulus device; type: in vivo; conditions: for Mechanical Stimulus device: sheep Rowdy #819
Description: The neuropathic pain model in the sheep is created by placing four tight ligatures around the median, radial, or ulnar nerve (or a combination thereof) with 0-chromic gut suture. This method produces a chronic painful peripheral mononeuropathy which may be related to those conditions seen in humans with causalgia and reflex sympathetic dystrophy. To date, the onset of neuropathic pain has occurred 1 to 9 days postoperatively, as evidenced by the display of painful behavior such as hyperalgesia, not bearing weight or holding the operated leg off the ground. The duration of the painful behavior lasted 16 to 62 days. […] It has been difficult to identify a segment of the median nerve that is consistently appropriate to achieve the neuropathic pain behavior. The inventors are continuing to test different segments of the median nerve and other mixed sensory/motor nerves to consistently produce this behavior. Of the five animals that developed neuropathic pain, three were treated with intrathecal morphine or midazolam as single agents.
In the sheep with neuropathic pain treated by midazolam alone, intrathecal administration of midazolam was initiated at 3 to 5 mg/day and the dose was escalated to up to 15 mg/day. […] This analgesia was documented using a mechanical stimulus device and/or behavior monitoring. The mechanical stimulus device measures pressure applied to a blunt pin against the foreleg. The pressure at which the animal lifts its leg in response to the painful stimulus is documented. In the sheep monitored by this device, administration of intrathecal midazolam allowed endurance of up to 18 Newtons of pressure (cut off to prevent tissue damage was set at 19.99 N) compared to the baseline (pretreatment) pressure endured of 9.59 N.
A mechanical stimulus device as described in Example 6, and/or behavior monitoring as described in Example 5 is used to test analgesic effect in the neuropathic pain model. To compare the effects of midazolam using the mechanical stimulus device, the data were accumulated over the testing period, and all response latencies were expressed as percentage of the maximum possible effect (MPE) where: [formula]
This test will be conducted prior to initiation of midazolam infusion and again on days 1, 3, 7, 15, 22, 29, 36, 43 during infusion. The mechanical stimulus device has been developed and validated (Nolan et al. 1987; Kyles et al., 1995) for pain testing in the sheep model.

[3] = CSF fluid analysis and routine cultures; type: in vivo, sheep; conditions: for CSF RBC Count Post Mortum / CSF WBC Count Post Mortum / CSF Glucose Post Mortum / CSF Total Protein Post Mortum: day 43
Method: On day 43 after venous blood samples were taken, animals were euthanized (Beuthanasia 1 ml/4.5 kg IV bolus injection). CSF samples were obtained for analysis (1-2 ml drawn from L-7/S-1 after a laminectomy was performed to expose the dura) of glucose, total protein, and cell differential.

[4] = rabbit, intrathecal bolus 0.1% midazolam or preservative-free midazolam in 0.3 ml, one or five days; cited from earlier work
[5] = rat, single or multiple intrathecal bolus doses for 20 days; cited from earlier work
[6] = double blinded sheep Chicken Hawk #87, 5 mg/day intrathecal infusion, day (1-43), hydrochloride
[7] = double blinded sheep Elmer Fudd #437, 5 mg/day intrathecal infusion, day (1-43), hydrochloride
[8] = double blinded sheep Leghorn II #815, 15 mg/day intrathecal infusion, day (1-43), hydrochloride
[9] = double blinded sheep Petunia #439, 15 mg/day intrathecal infusion, day (1-43), hydrochloride
[10] = double blinded sheep Porky #402, 5 mg/day intrathecal infusion, day (1-43), hydrochloride
[11] = double blinded sheep Roadrunner #84, 15 mg/day intrathecal infusion, day (1-43), hydrochloride
[12] = open label sheep #457 Tazz, 15 mg/day intrathecal infusion, day (1-43), hydrochloride
[13] = open label sheep #498 Toad, 10 mg/day intrathecal infusion, day (1-43), hydrochloride
[14] = open label sheep #518 Sandy, 5 mg/day intrathecal infusion, day (1-43), hydrochloride
[15] = open label sheep Dot #85, 15 mg/day intrathecal infusion, day (1-43), hydrochloride
[16] = open label sheep Wacko #83, 15 mg/day intrathecal infusion, day (1-43), hydrochloride
[17] = open label sheep Yacko #91, 15 mg/day intrathecal infusion, day (1-43), hydrochloride
[18] = CSF, double blinded study, individual sheep, dose group not given, hydrochloride
[19] = open label sheep Red #473, 3 mg/day
[20] = open label sheep Sandy #518, 5 mg/day
[21] = open label sheep Toad #498, 10 mg/day

Compound: Cc1ncc2n1-c1ccc(Cl)cc1C(c1ccccc1F)=NC2 [Midazolam, midazolam hydrochloride]
- Blood pressure Dia [1, 6]: 62 and 37 and 53 and 51 and 44 and 65 and 69 and 48
- Blood pressure Sys [1, 6]: 112 and 127 and 122 and 132 and 130 and 126 and 151
- Body Temp. Normal 101.3-104.0 [1, 6]: 102.4 and 102.6 and 102.8 and 102.2 and 102.0
- Pulse Rate Normal 55-115 [1, 6]: 75 and 83 and 63 and 101 and 79 and 88 and 84 and 82
- Blood pressure Sys [1, 7]: 122 and 138 and 119 and 131 and 150 and 136 and 139 and 120
- Body Temp. Normal 101.3-104.0 [1, 7]: 102.2 and 102.8 and 101.4 and 102.0 and 101.8
- Pulse Rate Normal 55-115 [1, 7]: 87 and 70 and 80 and 83 and 79 and 73 and 85
- Blood pressure Sys [1, 8]: 130 and 152 and 143 and 160 and 138 and 145
- Body Temp. Normal 101.3-104.0 [1, 8]: 104.2 and 102.4 and 102.8 and 102.2 and 102.6
- Pulse Rate Normal 55-115 [1, 8]: 111 and 144 and 88 and 125 and 121 and 97 and 89 and 87
- Blood pressure Dia [1, 9]: 34 and 49 and 44 and 32 and 26 and 45
- Blood pressure Sys [1, 9]: 133 and 152 and 126 and 132 and 123 and 114 and 120 and 142
- Body Temp. Normal 101.3-104.0 [1, 9]: 102.0 and 102.8 and 103.0 and 101.0 and 102.4
- Pulse Rate Normal 55-115 [1, 9]: 89 and 72 and 74 and 69 and 66 and 63 and 71 and 90
- Blood pressure Dia [1, 10]: 65 and 70 and 42 and 67 and 55 and 68 and 41 and 40
- Blood pressure Sys [1, 10]: 148 and 107 and 140 and 133 and 113 and 135 and 134 and 147
- Body Temp. Normal 101.3-104.0 [1, 10]: 102.0 and 102.6 and 101.0 and 101.2 and 102.2
- Pulse Rate Normal 55-115 [1, 10]: 87 and 99 and 89 and 100 and 90 and 86 and 108
- Blood pressure Dia [1, 11]: 75 and 77 and 49 and 42 and 50 and 51 and 40
- Blood pressure Sys [1, 11]: 137 and 124 and 132 and 116 and 144
- Body Temp. Normal 101.3-104.0 [1, 11]: 101.8 and 101.6 and 102.2 and 104.0 and 102.4 and 102.0 and 102.6
- Pulse Rate Normal 55-115 [1, 11]: 90 and 97 and 104 and 78 and 94 and 130 and 124 and 77
- Blood pressure Dia [1, 12]: 83 and 71 and 68 and 70 and 73 and 88
- Blood pressure sys [1, 12]: 151 and 154 and 145 and 147 and 135
- Body Temp. Normal 101.3-104.0 [1, 12]: 100.8 and 102.2 and 103.0 and 102.0
- Pulse Rate Normal 55-115 [1, 12]: 138 and 77 and 74 and 76 and 79 and 82
- Blood pressure Dia [1, 13]: 98 and 73 and 66 and 109 and 71 and 59 and 58
- Blood pressure Sys [1, 13]: 177 and 143 and 136 and 156 and 153 and 118 and 149
- Body Temp. Normal 101.3-104.0 [1, 13]: 102.0 and 104.2 and 102.8 and 102.4 and 101.8 and 103.0 and 103.2
- Pulse Rate Normal 55-115 [1, 13]: 98 and 79 and 95 and 77 and 104 and 67 and 89 and 78
- Blood pressure Sys [1, 14]: 180 and 150 and 141 and 152 and 147 and 169 and 164 and 185
- Body Temp. Normal 101.3-104.0 [1, 14]: 102.0 and 101.0 and 101.8 and 101.6 and 102.8
- Blood pressure Dia [1, 15]: 68 and 49 and 67 and 59 and 53 and 77 and 57 and 69
- Blood pressure Sys [1, 15]: 128 and 109 and 110 and 133 and 130 and 120 and 155
- Pulse Rate Normal 55-115 [1, 15]: 92 and 89 and 86 and 117 and 85 and 72 and 66 and 71
- Blood pressure Dia [1, 16]: 60 and 45 and 47 and 42 and 51 and 66 and 73 and 70
- Blood pressure Sys [1, 16]: 148 and 166 and 130 and 106 and 102 and 132 and 163 and 128
- Body Temp. Normal 101.3-104.0 [1, 16]: 102.0 and 102.4 and 102.6
- Pulse Rate Normal 55-115 [1, 16]: 104 and 98 and 91 and 92 and 99 and 84 and 75
- Blood pressure Sys [1, 17]: 138 and 143 and 156 and 110 and 151 and 160 and 149
- Pulse Rate Normal 55-115 [1, 17]: 115 and 80 and 84 and 86 and 72 and 82 and 66 and 69
- Blood pre-assure ([1]; sheep Rowdy #819, 10 mg): 136/75
- Pulse ([1]; sheep Rowdy #819, 10 mg): 122
- Blood pre-assure ([1]; sheep Rowdy #819, 15 mg): 143/77
- Pulse ([1]; sheep Rowdy #819, 15 mg): 94
- Respirations per minute ([1]; sheep Rowdy #819, 15 mg): 40 per minute
- pressure endured (mechanical stimulus device) ([2]; Sheep #819, cut off 19.99 N, baseline (pretreatment) 9.59 N): up to 18 Newtons
- analgesia ([2]; neuropathic pain sheep, midazolam alone, 3 to 5 mg/day escalated up to 15 mg/day intrathecal): significant analgesia
- Mechanical Stimulus device ([2]; 10 mg): 13.7N
- Mechanical Stimulus device ([2]; 15 mg): 7.0N
- Gross Exam Post Mortum ([3]; CSF, double blinded study, individual sheep, dose group (5 or 15 mg/day or saline) not given, hydrochloride): cloudy; also recorded: Colorless; also recorded: clear; also recorded: Pale pink; also recorded: Cloudy**
- Glucose Post Mortum [3, 18]: 35 mg/dL and 25 mg/dL and 31 mg/dL and 38 mg/dL and 24 mg/dL and 47 mg/dL and 34 mg/dL
- RBC Count Post Mortum [3, 18]: 480 µL⁻¹ and 725 µL⁻¹ and 4250 µL⁻¹ and 63 µL⁻¹ and 2 µL⁻¹ and 4 µL⁻¹ and 1325 µL⁻¹
- Total Protein Post Mortum [3, 18]: 73 mg/dL and 40 mg/dL and 47 mg/dL and 35 mg/dL and 59 mg/dL and 39 mg/dL and 42 mg/dL
- WBC Count Post Mortum [3, 18]: 12 µL⁻¹ and 80 µL⁻¹ and 22 µL⁻¹ and 8 µL⁻¹ and 1 µL⁻¹ and 4 µL⁻¹ and 29 µL⁻¹
- Routine Cultures Post Mortum ([3]; CSF, individual sheep, cell wraps 'No' / 'Growth', dose group not given): No
- CSF RBC Count Post Mortum [3, 19]: 772 µL⁻¹
- CSF WBC Count Post Mortum [3, 19]: 4 µL⁻¹
- CSF Glucose Post Mortum [3, 20]: 36 mg/dL
- CSF RBC Count Post Mortum [3, 20]: 56 µL⁻¹
- CSF Total Protein Post Mortum [3, 20]: 46.1 mg/dL
- CSF WBC Count Post Mortum [3, 20]: 206 µL⁻¹
- CSF Glucose Post Mortum [3, 21]: 40 mg/dL
- CSF RBC Count Post Mortum [3, 21]: 2160 µL⁻¹
- CSF Total Protein Post Mortum [3, 21]: 39.6 mg/dL
- CSF WBC Count Post Mortum [3, 21]: 36 µL⁻¹
- neurotoxicity [4]: neurotoxicity
- neurotoxicity [5]: neurotoxicity
